Measured values as given in the CheMixHub viscosity set.

Experiment: xn = mol fraction of the nth substance listed

CCN(CC)S(C)(=O)=O + CCO
303.15 K, 101.33 kPa
Details	viscosity [mPa·s]
x1 = 0.0656	100000
x1 = 0.1402	106700
x1 = 0.2228	117500
x1 = 0.2849	127400
x1 = 0.3659	142400
x1 = 0.4606	163500
x1 = 0.5135	176500
x1 = 0.5968	200200
x1 = 0.6622	221700
x1 = 0.743	253300
x1 = 0.8454	302600
x1 = 0.9395	359700

CCCCC + CCCCCl
298 K, 101.3 kPa
Details	viscosity [mPa·s]
x1 = 0.1016	0.4004
x1 = 0.2097	0.372
x1 = 0.2358	0.3641
x1 = 0.403	0.3274
x1 = 0.5062	0.3054
x1 = 0.6042	0.287
x1 = 0.7007	0.2701
x1 = 0.7975	0.2558
x1 = 0.8963	0.2391

CS(C)=O + COC(=O)OC
308.15 K, 101 kPa
Details	viscosity [mPa·s]
x1 = 0.0596	0.547
x1 = 0.1027	0.57
x1 = 0.1913	0.621
x1 = 0.2791	0.677
x1 = 0.371	0.743
x1 = 0.4598	0.814
x1 = 0.5007	0.853
x1 = 0.5479	0.897
x1 = 0.626	0.983
x1 = 0.7427	1.137
x1 = 0.8572	1.327
x1 = 0.9283	1.47

CC[C@@H](CO)NCCN[C@@H](CC)CO.Cl.Cl + O
298.15 K, 100 kPa
Details	viscosity [mPa·s]
x1 = 9.47e-06	0.8977
x1 = 1.925e-05	0.8983
x1 = 3.721e-05	0.8987
x1 = 9.087e-05	0.9011
x1 = 0.0001804	0.9029
x1 = 0.000898	0.9213
x1 = 0.001796	0.9443

CC1(C)OCC(CO)O1 (stereo not given) + CC(O)CO
viscosity [mPa·s], 101 kPa
Details	x1 = 0.1024	x1 = 0.2011	x1 = 0.2987	x1 = 0.4005	x1 = 0.5	x1 = 0.6041	x1 = 0.6998	x1 = 0.8002	x1 = 0.9017
298.15 K	40.23	35.6	31.55	27.24	22.86	19.38	16.97	14.5	12.03
308.15 K	23.19	20.46	18.03	15.53	13.03	11.25	10.26	9.248	7.738
318.15 K	14.4	12.56	11.33	9.726	8.135	7.174	6.614	6.244	5.465

OC1CCCCC1 + Cc1ccccc1Cl
303.15 K, 101 kPa
Details	viscosity [mPa·s]
x1 = 0.1104	4.861
x1 = 0.2183	8.854
x1 = 0.3237	12.93
x1 = 0.4268	17.06
x1 = 0.5276	21.22
x1 = 0.6262	25.36
x1 = 0.7227	29.4
x1 = 0.8171	33.34
x1 = 0.9095	37.22

CC(=O)CC(C)(C)O + OCc1ccccc1
298.15 K, 101 kPa
Details	viscosity [mPa·s]
x2 = 0.0518	2.886
x2 = 0.1087	3.021
x2 = 0.1705	3.199
x2 = 0.2406	3.41
x2 = 0.3325	3.67
x2 = 0.3445	3.703
x2 = 0.4344	3.968
x2 = 0.5378	4.295
x2 = 0.6345	4.596
x2 = 0.7171	4.831
x2 = 0.7554	4.935
x2 = 0.8122	5.096
x2 = 0.878	5.303
x2 = 0.9123	5.42
x2 = 0.9146	5.43

O=C(O)C=Cc1ccccc1 + CCCCO
viscosity [mPa·s]
Details	x1 = 0.0728	x1 = 0.0959	x1 = 0.114
308.15 K, 101.33 kPa	2.48	–	–
313.15 K, 101.33 kPa	2.19	–	–
318.15 K, 101 kPa	1.932	2.073	2.18
318.15 K, 101.33 kPa	1.932	2.073	–
323.15 K, 101.33 kPa	1.712	1.838	–
